Source: patent publication US6953786B2, “Compositions comprising plant-derived polyphenolic compounds and inhibitors of reactive oxygen species and methods of using thereof” (The Regents of the University of California, priority 2002, dated 2005)

What was measured:
caspase-3 [1] = assay: Caspase-3 activity, fluorogenic assay with DEVD-AMC; type: cell-based, rat; details: BSp73AS, up to 6 hours, 100 μM, no serum (FIGS. 6B, 6C)
Protocol: To determine whether a polyphenolic compound activates caspase-3 activity in a time-dependent manner, the following assay was conducted. BSp73AS cells were cultured for 0, 1, 3, and 6 hours and Mia PACA-2 cells were cultured in the absence of serum or growth factors for 0, 1, 4, 6, and 24 hours in the presence of 100 μM or quercetin, trans-resveratrol, rutin, or control. Caspase-3 activity was measured in cell lysates with a fluorogenic assay using DEVD-AMC as a substrate. The results were normalized to the DEVDase activity in untreated cells.
To determine whether quercetin activates caspase-3 activity in a dose-dependent manner, the following assay was conducted. Cells were cultured for 6 hours in the absence of serum or growth factors in the presence of 0, 10, 20, 50, and 100 μM of quercetin. Caspase-3 activity was measured in cell lysates with a fluorogenic assay using DEVD-AMC as a substrate. The results were normalized to the DEVDase activity in untreated cells.

caspase-3 [2] = assay: Caspase-3 (DEVDase) activity, fluorogenic assay with DEVD-AMC; type: cell-based, human; details: Mia PACA-2, up to 24 hours, 100 μM, no serum (FIG. 7B)
Protocol: To determine the role of caspases in the effects of combinations of agents on apoptosis, the effects of caspase-3 activity (DEVDase activity) as well as the effect of the broad spectrum caspase inhibitor, Z-VAD, on apoptosis was measured. Specifically, Mia PACA-2 cells were cultured for 72 hours in the presence of serum with or without 100 μM Z-VAD, 15 μM DPI, 100 μM trans-resveratrol, 100 μM genistein, a combination of trans-resveratrol and DPI, and a combination of genistein and DPI. DEVDase activity was measured in whole cell lysates with a fluorimetric assay.
A fluorimetric assay for caspase-3 activity was conducted. […] Cytosolic protein extracts (supernatants) were collected, protein concentrations were determined and the extracts were aliquoted and stored at −80° C. […] The reaction was started by addition of caspase-3 substrate, the readings were taken at 0, 60, 90, and 120 minutes. Fluorescence was calibrated using a standard curve for AMC. The data were expressed as mol AMC/mg protein/min.
Mia PACA-2 cells were cultured in the absence of serum or growth factors for 24 hours in the presence or absence of quercetin (100 μM), trans-resveratrol (100 μM), Z-VAD FMK (50 μM), cyclosporin A (5 μM) and/or aristolochic acid (50 μM). […] The reaction was started by addition of caspase-3 substrate, the readings were taken at 0, 60, 90, and 120 minutes. Fluorescence was calibrated using a standard curve for AMC. […] The data were expressed as mol AMC/mg protein/min. […]

BSp73AS cells = assay: Oligonucleosomal DNA fragmentation (agarose gel); type: cell-based, rat; details: 6 hours, 100 μM, no serum
Protocol: To confirm the apoptosis in vivo results, the effects of quercetin, rutin, and trans-resveratrol in other apoptosis assays in Mia PACA-2 cells and BSp73AS cells in culture were conducted. BSp73AS cells are derived from a rat pancreatic carcinoma and both Mia PACA-2 and BSp73AS cells have mutated p53 and express K-ras. Human pancreatic carcinoma cell line Mia PACA-2 and rat pancreatic carcinoma BSp73AS were cultured in Dulbecco's Modified Eagle's Medium supplemented with 10% heat inactivated FBS, penicillin G (100 U/ml) and streptomycin ([…]) in a humidified atmosphere comprising 5% (v/v) CO2. When cells were 90% confluent they were detached, washed with alternating centrifugation and resuspension, plated and incubated in the same media without FBS and with the indicated concentrations of polyphenolic compounds or vehicle for up to 96 hours. Oligonucleotide DNA fragmentation, annexin staining, and PARP proteolysis assays were conducted as follows: BSp73AS pancreatic cancer cells were cultured for 6 hours in the presence or absence of 100 μM of rutin, quercetin, or trans-resveratrol. DNA was isolated as described by Gukovskaya AS, et al. (1997) Clin Invest 100: 1853-1862, which is herein incorporated by reference. […]

PARP = PARP proteolysis (Western blot); type: cell-based, rat; details: BSp73AS, 6 hours, 100 μM
Protocol: BSp73AS cells were cultured for 6 hours and Mia PACA-2 cells were cultured for 24 hours in the presence or absence of 100 μM of each rutin, quercetin or trans-resveratrol and with or without 50 μM of each […]. The cells were washed twice with PBS and lysed by incubating for 20 minutes at 4° C. in lysis buffer comprising 0.15 M NaCl, 50 mM Tris (pH 7.2), 1% deoxycholic acid (wt/vol), 1% Triton X-100 (wt/vol), 0.1% […] (wt/vol) and 1 mM PMSF, as well as 5 μg/ml each of protease inhibitors, pepstatin, leupeptin, chymostatin, antipain, and aprotinin. Then the cell lysates were centrifuged for 20 minutes at 15,000 g at 4° C. The supernatants were separated by 4-20% SDS-PAGE for 2 hours at 120 V using precast Tris-glycine gels and a Mini-Cell gel apparatus (Novex, San Diego, Calif.). Separated proteins were electrophoretically transferred to a nitrocellulose membrane for 2 hours at 30 V using a Novex Blot Module (Novex, San Diego, Calif.). Nonspecific binding was blocked by 1 hour incubation of nitrocellulose membranes in 5% (wt/vol) nonfat dry milk in Tris-buffered saline (TBS; pH 7.5). Blots were then incubated overnight at 4° C. with rabbit polyclonal antibody against poly (ADP-ribose) polymerase (PARP) (Santa Cruz Biotechnology, Santa Cruz, Calif.) (1;3,000) in an antibody buffer comprising (1% (wt/vol) non-fat dry milk in TTBS (0.05% vol/vol) Tween-20 in TBS), washed 3 times with TTBS and finally incubated for 1 hour with a peroxidase-labeled secondary antibody in the antibody buffer. Blots were developed for visualization using ECL detection kit. To test for equal protein loading, the blots were stripped and re-probed with an antibody against tubulin. When processing of a protein was measured, a decrease in unprocessed full-length form was measured concomitantly with the increase in the cleaved, active form. The experiment was repeated 3 times with similar results.

Mia PACA-2 = assay: TUNEL apoptosis assay in primary tumors and normal tissues; type: in vivo, nude mouse
Protocol: In order to determine the mechanism of the suppressive effects of quercetin on the growth of the pancreatic cancer, apoptosis in the primary tumors using the TUNEL assay was conducted. See Gukovskaya AS, et al. (1997) Clin Invest 100:1853-1862; Gukovskaya AS, et al. (1996) Gastroenterology 110:875-884; and Sandoval D, et al. (1996) Gastroenterology 111:1081-1091, which are herein incorporated by reference. Specifically, 3 μm tissue section were deparaffinized and rehydrated through a graded series of ethanol and redistilled water. Tissue sections were refixed in 4% paraformaldehyde for 15 minutes at room temperature and then incubated with proteinase K (20 μg/ml in 10 mM Tirs/HCL, pH 7.4-8.0) for 15 minutes at 37° C. DNA breaks were then labeled with terminal deoxytransferase (TdT) and biotinylated deoxyUTP. Staining without TdT enzyme or the biotinylated substrate were used as negative controls. For positive controls, slides were treated with DNase I. Measurements were made by light microscpy observations and values calculated as the percentage of cells positively stained as a percentage of the total number of cells.

O=c1c(O)c(-c2ccc(O)c(O)c2)oc2cc(O)cc(O)c12 [quercetin]
caspase-3 activation (caspase-3 [1]): caused caspase-3 activation
caspase-3 activation (caspase-3 [2]): caused caspase-3 activation
oligonucleosomal DNA fragmentation (BSp73AS cells): caused an increase
PARP cleavage (PARP): cleaved to its activated form
Percentage of apoptosis (Mia PACA-2; TUNEL in primary tumors of quercetin-treated nude mice, means ± SE, n=8): 7.10 ± 1.00 %
apoptosis in normal tissues detected by the TUNEL assay (Mia PACA-2; quercetin-treated nude mice, data not shown): no increase in apoptosis

Oc1ccc(/C=C/c2cc(O)cc(O)c2)cc1 [trans-resveratrol]
caspase-3 activation (caspase-3 [1]): caused caspase-3 activation
caspase-3 activation (caspase-3 [2]): caused caspase-3 activation
oligonucleosomal DNA fragmentation (BSp73AS cells): caused an increase
PARP cleavage (PARP): cleaved to its activated form
